The values that follow come from patent publication EP2957607B1, “IMAGE FORMING METHOD” (Konica Minolta, Inc., priority 2014, dated 2015).

This data set is described as follows: pKa value (acid dissociation constant) of the adsorption inhibitor. Type of data set: physicochemical. The text has this: The pKa value is also called the acid dissociation constant, which can be determined by a conventional method. The pKa value can be determined by, for example, the method described in Jikken Kagaku Koza 5, Netsuteki Sokutei oyobi Heiko (Experimental Chemistry Lecture 5, Thermal Measurements and Equilibrium), page 460, edited by The Chemical Society of Japan, Maruzen Co., Ltd.

Some results are limits rather than exact numbers.

Consider `O=C(O)CC(O)C(=O)O` (stereo not shown) [malic acid, Malic acid], for which the pKa (as a rule, the pH at which an ionisable group is half protonated) was under 5.5.
